Results from ChEMBL document CHEMBL1933042, “Discovery of potent and selective matrix metalloprotease 12 inhibitors for the potential treatment of chronic obstructive pulmonary disease (COPD)” (Bioorg Med Chem Lett, 2012).
Converted amounts (≈) assume the structure as drawn. One block for each compound: values may come before it.

Legend:
Homo sapiens [1] = organism: Homo sapiens; assay: Selectivity ratio of IC50 for human MMP-13 to IC50 for human MMP-12
Homo sapiens [2] = organism: Homo sapiens; assay: Selectivity ratio of IC50 for human MMP-8 to IC50 for human MMP-12
[3] = target: Macrophage metalloelastase (Homo sapiens, UniProt P39900); assay: Inhibition of human MMP-12
Mus musculus [4] = assay: Inhibition of human recombinant MMP12-induced lung inflammation in C57BL/6 mouse assessed as reduction in bronchoalveolar lavage inflammation at 10 mg/kg, po bid administered at 2 hrs prior to and 12 hrs post challenge measured 24 hrs after last challenge relative to vehicle treated control; assay type: functional; details: C57BL/6, Lung
Mus musculus [5] = assay: Inhibition of human recombinant MMP12-induced lung inflammation in po dosed C57BL/6 mouse assessed as minimum effective dose for reduction in Bronchoalveolar Lavage inflammation administered bid at 2 hrs prior to and 12 hrs post challenge measured 24 hrs after last challenge; assay type: functional; details: C57BL/6, po, read-out: MED
[6] = AUC in C57BL/6 mouse at 10 mg/kg, po; assay type: ADME, organism-based; set-up: dose 10 mg/kg, route oral; details: plasma
[7] = Oral bioavailability in C57BL/6 mouse at 10 mg/kg; assay type: ADME, organism-based; details: in vivo
Mus musculus [8] = assay: Inhibition of human recombinant MMP12-mediated ear swelling in C57BL/6 mouse at 3 mg/kg, po bid administered 12 hrs and 2 hrs prior to challenge measured after 2 hrs relative to vehicle treated control; assay type: functional
Mus musculus [9] = assay: Inhibition of human recombinant MMP12-mediated ear swelling in C57BL/6 mouse at 10 mg/kg, po bid administered 12 hrs and 2 hrs prior to challenge measured after 2 hrs relative to vehicle treated control; assay type: functional
Mus musculus [10] = assay: Inhibition of human recombinant MMP12-mediated ear swelling in C57BL/6 mouse at 30 mg/kg, po bid administered 12 hrs and 2 hrs prior to challenge measured after 2 hrs relative to vehicle treated control; assay type: functional
Mus musculus [11] = assay: Inhibition of human recombinant MMP12-induced lung inflammation in C57BL/6 mouse assessed as reduction in bronchoalveolar lavage inflammation at 5 mg/kg, po bid at 2 hrs prior to and 12 hrs post challenge measured 24 hrs after last challenge relative to vehicle treated control; assay type: functional; details: C57BL/6, Lung
[12] = target: 72 kDa type IV collagenase (Homo sapiens, UniProt P08253); assay: Inhibition of human MMP-2
Stromelysin-1 = Stromelysin-1 (Homo sapiens, UniProt P08254); assay: Inhibition of human MMP-3
Matrilysin = target: T1, Matrilysin (Homo sapiens, UniProt P09237); assay: Inhibition of human MMP-7
T1 sequence (P09237 whole entry): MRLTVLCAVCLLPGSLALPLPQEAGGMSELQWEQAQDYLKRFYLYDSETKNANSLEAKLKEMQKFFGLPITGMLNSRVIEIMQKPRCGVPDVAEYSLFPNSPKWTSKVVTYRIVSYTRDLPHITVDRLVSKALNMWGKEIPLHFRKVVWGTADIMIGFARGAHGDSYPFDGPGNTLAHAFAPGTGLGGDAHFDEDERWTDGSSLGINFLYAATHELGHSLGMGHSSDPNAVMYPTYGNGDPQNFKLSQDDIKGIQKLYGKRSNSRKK

Neutrophil collagenase = Neutrophil collagenase (Homo sapiens, UniProt P22894); assay: Inhibition of human MMP-8
[13] = target: Matrix metalloproteinase-9 (Homo sapiens, UniProt P14780); assay: Inhibition of human MMP-9
Collagenase 3 = Collagenase 3 (Homo sapiens, UniProt P45452); assay: Inhibition of human MMP-13
[14] = Aqueous solubility of the compound at pH 7.4; assay type: physicochemical; details: buffer
Salmonella typhimurium = assay: Mutagenicity in Salmonella Typhimurium by AMES test; assay type: toxicity, organism-based; details: salmonella enterica subsp. enterica serovar typhimurium
[15] = target: Voltage-gated inwardly rectifying potassium channel KCNH2 (Homo sapiens, UniProt Q12809); assay: Inhibition of human ERG
[16] = target: Macrophage metalloelastase (Mus musculus, UniProt P34960); assay: Inhibition of mouse MMP-12
[17] = target: Macrophage metalloelastase (Oryctolagus cuniculus, UniProt P79227); assay: Inhibition of rabbit MMP-12
[18] = target: Matrix metalloproteinase-12 (Canis lupus familiaris, UniProt A9X4R8); assay: Inhibition of dog MMP-12
[19] = Inhibition of monkey MMP-12; set-up: species or system Macaca mulatta
[20] = Inhibition of sheep MMP-12; set-up: species or system Ovis aries
[21] = Volume of distribution at steady state in C57BL/6 mouse at 2 mg/kg, iv; assay type: ADME, organism-based; set-up: dose 2 mg/kg, route intravenous; details: in vivo, read-out: Vdss
[22] = Clearance in C57BL/6 mouse at 2 mg/kg, iv; assay type: ADME, organism-based; set-up: dose 2 mg/kg, route intravenous; details: in vivo
[23] = Half life in C57BL/6 mouse at 10 mg/kg, po; assay type: ADME, organism-based; set-up: dose 10 mg/kg, route oral; details: in vivo
[24] = Cmax in C57BL/6 mouse at 10 mg/kg, po; assay type: ADME, organism-based; set-up: dose 10 mg/kg, route oral; details: in vivo

Macrophage metalloelastase (Oryctolagus cuniculus, UniProt P79227), sequence (P79227 whole entry): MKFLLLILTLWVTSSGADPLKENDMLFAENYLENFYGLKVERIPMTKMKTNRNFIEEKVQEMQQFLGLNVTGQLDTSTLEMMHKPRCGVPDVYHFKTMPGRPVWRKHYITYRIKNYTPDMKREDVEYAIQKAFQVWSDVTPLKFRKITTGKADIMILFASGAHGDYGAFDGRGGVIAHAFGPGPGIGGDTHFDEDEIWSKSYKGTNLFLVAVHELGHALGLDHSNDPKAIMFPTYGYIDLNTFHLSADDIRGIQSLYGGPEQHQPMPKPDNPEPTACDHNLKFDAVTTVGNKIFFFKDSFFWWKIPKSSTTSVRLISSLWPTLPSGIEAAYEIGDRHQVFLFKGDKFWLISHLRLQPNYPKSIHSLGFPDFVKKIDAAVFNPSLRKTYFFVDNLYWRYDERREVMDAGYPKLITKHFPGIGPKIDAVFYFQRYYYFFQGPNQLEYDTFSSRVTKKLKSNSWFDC
72 kDa type IV collagenase, sequence (P08253 whole entry): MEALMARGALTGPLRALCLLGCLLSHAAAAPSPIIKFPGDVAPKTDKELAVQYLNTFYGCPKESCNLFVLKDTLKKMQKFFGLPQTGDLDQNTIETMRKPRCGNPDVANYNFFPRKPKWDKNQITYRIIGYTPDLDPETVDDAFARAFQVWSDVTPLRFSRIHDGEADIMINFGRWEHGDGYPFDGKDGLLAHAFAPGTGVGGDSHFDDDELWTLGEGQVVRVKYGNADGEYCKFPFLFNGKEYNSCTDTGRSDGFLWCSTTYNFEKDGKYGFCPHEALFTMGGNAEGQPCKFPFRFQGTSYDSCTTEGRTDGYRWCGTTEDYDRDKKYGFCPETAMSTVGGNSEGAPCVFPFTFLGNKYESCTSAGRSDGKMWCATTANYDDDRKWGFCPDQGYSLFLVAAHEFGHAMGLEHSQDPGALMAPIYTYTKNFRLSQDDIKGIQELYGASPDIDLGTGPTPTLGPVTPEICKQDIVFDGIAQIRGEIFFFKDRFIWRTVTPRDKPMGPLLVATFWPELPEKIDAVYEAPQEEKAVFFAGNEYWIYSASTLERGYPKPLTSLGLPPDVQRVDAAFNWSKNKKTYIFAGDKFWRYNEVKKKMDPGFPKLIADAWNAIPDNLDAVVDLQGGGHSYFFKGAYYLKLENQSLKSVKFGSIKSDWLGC
Macrophage metalloelastase (Mus musculus, UniProt P34960), sequence (P34960 whole entry): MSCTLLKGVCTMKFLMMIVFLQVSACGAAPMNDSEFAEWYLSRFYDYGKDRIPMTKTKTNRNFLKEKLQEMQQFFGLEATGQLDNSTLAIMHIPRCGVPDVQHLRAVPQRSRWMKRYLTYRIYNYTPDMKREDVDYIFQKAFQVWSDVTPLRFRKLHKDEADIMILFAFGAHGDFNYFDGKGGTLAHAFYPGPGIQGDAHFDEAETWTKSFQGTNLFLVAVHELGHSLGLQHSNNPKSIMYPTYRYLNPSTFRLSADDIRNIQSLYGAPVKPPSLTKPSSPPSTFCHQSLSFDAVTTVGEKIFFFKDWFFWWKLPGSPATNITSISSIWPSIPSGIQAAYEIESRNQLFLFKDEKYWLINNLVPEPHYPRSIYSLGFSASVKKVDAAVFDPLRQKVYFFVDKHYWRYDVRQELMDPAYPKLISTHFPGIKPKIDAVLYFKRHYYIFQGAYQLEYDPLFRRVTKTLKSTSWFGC
Voltage-gated inwardly rectifying potassium channel KCNH2, sequence (Q12809 whole entry): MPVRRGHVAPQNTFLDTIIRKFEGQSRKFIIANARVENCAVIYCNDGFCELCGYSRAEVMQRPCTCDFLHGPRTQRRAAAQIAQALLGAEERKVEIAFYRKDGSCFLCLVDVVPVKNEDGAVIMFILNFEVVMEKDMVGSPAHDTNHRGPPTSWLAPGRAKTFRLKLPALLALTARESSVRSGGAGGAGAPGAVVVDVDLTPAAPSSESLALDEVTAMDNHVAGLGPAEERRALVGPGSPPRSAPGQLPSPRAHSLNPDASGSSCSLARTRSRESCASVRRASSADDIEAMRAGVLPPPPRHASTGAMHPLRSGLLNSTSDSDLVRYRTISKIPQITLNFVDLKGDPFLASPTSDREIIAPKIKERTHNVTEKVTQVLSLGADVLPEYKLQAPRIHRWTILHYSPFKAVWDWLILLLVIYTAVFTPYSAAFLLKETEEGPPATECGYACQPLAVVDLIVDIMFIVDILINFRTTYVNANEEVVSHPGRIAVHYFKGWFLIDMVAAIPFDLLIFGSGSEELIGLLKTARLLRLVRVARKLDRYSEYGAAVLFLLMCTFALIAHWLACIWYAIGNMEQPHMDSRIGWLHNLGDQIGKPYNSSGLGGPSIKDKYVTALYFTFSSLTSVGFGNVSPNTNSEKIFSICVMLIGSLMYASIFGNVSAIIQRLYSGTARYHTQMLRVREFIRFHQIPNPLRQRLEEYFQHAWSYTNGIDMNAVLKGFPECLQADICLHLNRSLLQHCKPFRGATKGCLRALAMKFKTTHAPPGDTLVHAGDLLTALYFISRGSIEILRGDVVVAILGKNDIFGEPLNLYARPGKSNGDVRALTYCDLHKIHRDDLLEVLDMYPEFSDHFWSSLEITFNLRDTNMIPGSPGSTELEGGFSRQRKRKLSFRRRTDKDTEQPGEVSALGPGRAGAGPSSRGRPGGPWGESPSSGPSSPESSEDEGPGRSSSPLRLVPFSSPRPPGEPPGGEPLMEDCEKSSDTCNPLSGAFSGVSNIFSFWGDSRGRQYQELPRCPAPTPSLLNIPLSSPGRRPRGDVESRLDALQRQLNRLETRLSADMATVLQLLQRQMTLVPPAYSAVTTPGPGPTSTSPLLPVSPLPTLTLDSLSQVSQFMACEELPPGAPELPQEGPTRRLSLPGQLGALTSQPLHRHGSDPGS
Neutrophil collagenase, sequence (P22894 whole entry): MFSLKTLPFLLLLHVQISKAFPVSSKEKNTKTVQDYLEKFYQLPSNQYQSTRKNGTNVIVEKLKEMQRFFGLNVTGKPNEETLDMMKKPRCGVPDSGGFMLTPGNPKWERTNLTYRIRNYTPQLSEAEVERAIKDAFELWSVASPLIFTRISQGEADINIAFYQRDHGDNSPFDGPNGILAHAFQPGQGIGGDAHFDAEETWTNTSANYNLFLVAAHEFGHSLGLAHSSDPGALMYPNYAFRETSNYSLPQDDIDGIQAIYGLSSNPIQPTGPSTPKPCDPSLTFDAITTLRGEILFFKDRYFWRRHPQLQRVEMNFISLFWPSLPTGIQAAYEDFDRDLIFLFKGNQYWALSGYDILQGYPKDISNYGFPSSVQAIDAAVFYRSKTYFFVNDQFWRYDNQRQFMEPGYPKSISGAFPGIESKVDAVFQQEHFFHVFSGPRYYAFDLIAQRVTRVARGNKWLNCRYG
Matrix metalloproteinase-12, sequence (A9X4R8 whole entry): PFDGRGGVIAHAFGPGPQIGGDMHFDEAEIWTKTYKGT
Matrix metalloproteinase-9, sequence (P14780 whole entry): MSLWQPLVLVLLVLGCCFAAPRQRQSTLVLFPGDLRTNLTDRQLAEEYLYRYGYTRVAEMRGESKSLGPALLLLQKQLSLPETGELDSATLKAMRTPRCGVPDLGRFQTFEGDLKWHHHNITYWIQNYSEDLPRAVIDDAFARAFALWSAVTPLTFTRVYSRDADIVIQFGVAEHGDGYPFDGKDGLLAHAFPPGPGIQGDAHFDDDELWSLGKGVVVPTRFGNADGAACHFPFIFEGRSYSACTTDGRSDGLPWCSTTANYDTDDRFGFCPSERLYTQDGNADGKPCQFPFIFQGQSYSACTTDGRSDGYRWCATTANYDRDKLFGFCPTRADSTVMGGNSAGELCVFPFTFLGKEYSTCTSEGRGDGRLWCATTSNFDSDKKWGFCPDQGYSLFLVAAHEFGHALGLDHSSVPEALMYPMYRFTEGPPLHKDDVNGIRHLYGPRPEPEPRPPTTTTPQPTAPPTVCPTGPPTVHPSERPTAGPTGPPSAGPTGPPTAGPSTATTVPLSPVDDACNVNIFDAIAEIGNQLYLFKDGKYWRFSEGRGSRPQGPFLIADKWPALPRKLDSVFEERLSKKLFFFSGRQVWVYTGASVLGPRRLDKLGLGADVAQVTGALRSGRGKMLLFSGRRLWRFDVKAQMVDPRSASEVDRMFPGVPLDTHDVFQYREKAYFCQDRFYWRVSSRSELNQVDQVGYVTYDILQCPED
Macrophage metalloelastase (Homo sapiens, UniProt P39900), sequence (P39900 whole entry): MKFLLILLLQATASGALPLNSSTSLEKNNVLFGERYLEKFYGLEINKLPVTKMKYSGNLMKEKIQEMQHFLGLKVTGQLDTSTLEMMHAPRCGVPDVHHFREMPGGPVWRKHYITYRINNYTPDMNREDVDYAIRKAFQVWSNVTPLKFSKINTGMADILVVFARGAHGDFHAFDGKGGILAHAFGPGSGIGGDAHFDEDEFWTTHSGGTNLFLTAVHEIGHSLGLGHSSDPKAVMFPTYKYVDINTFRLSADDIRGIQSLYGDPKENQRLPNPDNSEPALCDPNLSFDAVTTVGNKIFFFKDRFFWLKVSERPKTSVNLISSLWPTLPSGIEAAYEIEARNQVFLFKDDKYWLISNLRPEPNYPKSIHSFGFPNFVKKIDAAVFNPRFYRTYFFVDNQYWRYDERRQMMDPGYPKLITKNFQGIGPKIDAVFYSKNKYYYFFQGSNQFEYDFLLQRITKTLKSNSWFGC
Stromelysin-1, sequence (P08254 whole entry): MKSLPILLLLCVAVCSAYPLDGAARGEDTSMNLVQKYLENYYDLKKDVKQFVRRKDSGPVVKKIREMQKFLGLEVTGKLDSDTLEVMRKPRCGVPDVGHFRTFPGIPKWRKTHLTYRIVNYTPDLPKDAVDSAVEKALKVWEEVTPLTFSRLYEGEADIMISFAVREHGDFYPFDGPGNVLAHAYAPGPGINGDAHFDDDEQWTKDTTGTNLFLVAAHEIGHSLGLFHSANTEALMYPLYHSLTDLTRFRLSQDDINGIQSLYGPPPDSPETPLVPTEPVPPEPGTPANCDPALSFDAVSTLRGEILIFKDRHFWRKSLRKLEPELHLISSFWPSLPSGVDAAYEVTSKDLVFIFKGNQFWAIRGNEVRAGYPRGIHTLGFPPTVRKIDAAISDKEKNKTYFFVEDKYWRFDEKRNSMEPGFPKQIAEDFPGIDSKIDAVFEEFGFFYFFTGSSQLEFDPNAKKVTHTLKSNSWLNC

SMILES: CC(C)[C@H](NS(=O)(=O)c1ccc2c(c1)oc1ccc(-n3ccc(C(F)(F)F)n3)cc12)C(=O)O
Ratio IC50 (Homo sapiens [1]): 349
Ratio IC50 (Homo sapiens [2]): 44

SMILES: CC(C)[C@H](NS(=O)(=O)c1ccc2c(c1)oc1ccc(N3CCN(C)CC3)cc12)C(=O)O
Ratio IC50 (Homo sapiens [1]): 38
Ratio IC50 (Homo sapiens [2]): 0.5

SMILES: CC(C)[C@H](NS(=O)(=O)c1ccc2c(c1)oc1ccc(-c3noc(C4CCOC4)n3)cc12)C(=O)O (some centres undefined)
Ratio IC50 (Homo sapiens [2]): 100

SMILES: CC(C)c1nc(-c2ccc3oc4cc(S(=O)(=O)N[C@H](C(=O)O)C(C)C)ccc4c3c2)no1
Ratio IC50 (Homo sapiens [2]): 19

SMILES: CC(C)[C@H](NS(=O)(=O)c1ccc2c(c1)oc1ccc(-c3noc(C(F)(F)F)n3)cc12)C(=O)O
Ratio IC50 (Homo sapiens [2]): 45

SMILES: COCc1nc(-c2ccc3oc4cc(S(=O)(=O)N[C@H](C(=O)O)C(C)C)ccc4c3c2)no1
Ratio IC50 (Homo sapiens [2]): 10

SMILES: CC(C)[C@H](NS(=O)(=O)c1ccc2c(c1)oc1ccc(-c3noc(C4CCC4)n3)cc12)C(=O)O
Ratio IC50 (Homo sapiens [2]): 44

SMILES: CC(C)[C@H](NS(=O)(=O)c1ccc2c(c1)oc1ccc(N3CCOCC3)cc12)C(=O)O
Ratio IC50 (Homo sapiens [1]): 154
Ratio IC50 (Homo sapiens [2]): 3

SMILES: CC(C)[C@H](NS(=O)(=O)c1ccc2c(c1)oc1ccc(N3CCNCC3)cc12)C(=O)O
Ratio IC50 (Homo sapiens [1]): 34
Ratio IC50 (Homo sapiens [2]): 2

SMILES: CC(C)[C@H](NS(=O)(=O)c1ccc2c(c1)oc1ccc(-c3noc(C4CC4)n3)cc12)C(=O)O
Ratio IC50 (Homo sapiens [2]): 56

SMILES: COC(=O)Nc1ccc2oc3cc(S(=O)(=O)N[C@H](C(=O)O)C(C)C)ccc3c2c1
Ratio IC50 (Homo sapiens [1]): 60

Continued, in another order:

Ratio IC50 (Homo sapiens [1]): 900
Ratio IC50 (Homo sapiens [2]): 33
SMILES: CC(C)[C@H](NS(=O)(=O)c1ccc2c(c1)oc1ccc(-c3ccoc3)cc12)C(=O)O

IC50 [3]: < 1 nM
Ratio IC50 (Homo sapiens [1]): > 1130
Ratio IC50 (Homo sapiens [2]): > 2500
SMILES: CC(C)[C@H](NS(=O)(=O)c1ccc2c(c1)oc1ccc(-c3cc[nH]n3)cc12)C(=O)O

Ratio IC50 (Homo sapiens [2]): 1.4
SMILES: CCc1nc(-c2ccc3oc4cc(S(=O)(=O)N[C@H](C(=O)O)C(C)C)ccc4c3c2)no1

Ratio IC50 (Homo sapiens [1]): 1690
Ratio IC50 (Homo sapiens [2]): 100
SMILES: CC(C)[C@H](NS(=O)(=O)c1ccc2c(c1)oc1ccc(-c3cccs3)cc12)C(=O)O

Ratio IC50 (Homo sapiens [1]): 37
Ratio IC50 (Homo sapiens [2]): 15
SMILES: CC(C)[C@H](NS(=O)(=O)c1ccc2c(c1)oc1ccc(-n3cccn3)cc12)C(=O)O

AUC [6]: 20300 ng·h/mL
bioavailability [7]: 63%
Ratio IC50 (Homo sapiens [1]): 1980
Ratio IC50 (Homo sapiens [2]): 154
IC50 [12]: 501 nM
IC50 (Stromelysin-1): 2530 nM
IC50 (Matrilysin): 57700 nM
IC50 (Neutrophil collagenase): 154 nM
IC50 [13]: 1970 nM
IC50 (Collagenase 3): 1980 nM
solubility [14]: 550 µg/mL (≈ 1280 µM)
IC50 [16]: 85 nM
IC50 [17]: 57 nM
IC50 [18]: 70 nM
IC50 [19]: 244 nM
IC50 [20]: 5.4 nM
Vd [21]: 0.8 L/kg
clearance [22]: 5 mL/min/kg
half-life [23]: 2.9 h
Cmax [24]: 5550 ng/mL
SMILES: CC(C)[C@H](NS(=O)(=O)c1ccc2c(c1)oc1ccc(-c3nccs3)cc12)C(=O)O
inhibition in vivo at 10 mg/kg (Mus musculus [4]): > 50%
minimal effective dose (Mus musculus [5]): 5 mg/kg
inhibition in vivo at 3 mg/kg (Mus musculus [8]): 24.9%
inhibition in vivo at 10 mg/kg (Mus musculus [9]): 38.6%
inhibition in vivo at 30 mg/kg (Mus musculus [10]): 65.2%
inhibition in vivo at 5 mg/kg (Mus musculus [11]): > 50%
Activity (Salmonella typhimurium): Non-toxic
inhibition (INH) [15]: Not Active

Ratio IC50 (Homo sapiens [1]): 460
Ratio IC50 (Homo sapiens [2]): 158
SMILES: Cc1cnc(-c2ccc3oc4cc(S(=O)(=O)N[C@H](C(=O)O)C(C)C)ccc4c3c2)s1

Ratio IC50 (Homo sapiens [1]): 34
Ratio IC50 (Homo sapiens [2]): 4
SMILES: CC(C)[C@H](NS(=O)(=O)c1ccc2c(c1)oc1ccc(-n3cncn3)cc12)C(=O)O

Ratio IC50 (Homo sapiens [1]): 1440
Ratio IC50 (Homo sapiens [2]): 70
SMILES: CC(C)[C@H](NS(=O)(=O)c1ccc2c(c1)oc1ccc(-c3ccc(Cl)o3)cc12)C(=O)O

Ratio IC50 (Homo sapiens [1]): 525
Ratio IC50 (Homo sapiens [2]): 143
SMILES: CC(C)[C@H](NS(=O)(=O)c1ccc2c(c1)oc1ccc(-c3ccc[nH]3)cc12)C(=O)O

Ratio IC50 (Homo sapiens [2]): 60
SMILES: CC(C)[C@H](NS(=O)(=O)c1ccc2c(c1)oc1ccc(-c3noc(-c4ccccc4)n3)cc12)C(=O)O

Ratio IC50 (Homo sapiens [1]): 1200
Ratio IC50 (Homo sapiens [2]): 125
SMILES: Cc1ccc(-c2ccc3oc4cc(S(=O)(=O)N[C@H](C(=O)O)C(C)C)ccc4c3c2)s1
